Assay results reported in the NIST ThermoML archive (doi:10.1021/acs.jced.6b00657).

Assay: xn = mol fraction of the nth substance listed
Conditions: Liquid, absorption in thin film, x2 = 0

CCCCCC[n+]1ccn(C)c1.N#C[C-](C#N)C#N [3-hexyl-1-methylimidazolium tricyanomethanide] + O=C=O
Conditions	binary diffusion coefficient [m2/s]
298.15 K, 94 kPa	2e-10
298.15 K, 194 kPa	1.8e-10
298.15 K, 293 kPa	1.8e-10
298.15 K, 393 kPa	2e-10
298.15 K, 493 kPa	2e-10
298.15 K, 693 kPa	2.4e-10
298.15 K, 793 kPa	2.4e-10
298.15 K, 893 kPa	2.4e-10
298.15 K, 993 kPa	2.2e-10
298.15 K, 1193 kPa	3e-10
298.15 K, 1293 kPa	3.2e-10
298.15 K, 1393 kPa	2.9e-10
298.15 K, 1493 kPa	3e-10
298.15 K, 1693 kPa	3.1e-10
298.15 K, 1793 kPa	3.3e-10
308.15 K, 101 kPa	2.6e-10
308.15 K, 198 kPa	2.4e-10
308.15 K, 297 kPa	2.5e-10
308.15 K, 394 kPa	2.5e-10
308.15 K, 494 kPa	2.5e-10
308.15 K, 593 kPa	2.5e-10
308.15 K, 692 kPa	2.7e-10
308.15 K, 793 kPa	2.2e-10
308.15 K, 892 kPa	3.3e-10
308.15 K, 993 kPa	2.9e-10
308.15 K, 1093 kPa	3.1e-10
308.15 K, 1192 kPa	3.3e-10
308.15 K, 1292 kPa	3.3e-10
308.15 K, 1393 kPa	3.4e-10
308.15 K, 1492 kPa	3.4e-10
308.15 K, 1592 kPa	4e-10
308.15 K, 1693 kPa	3.8e-10
308.15 K, 1793 kPa	4.1e-10
308.15 K, 1893 kPa	4e-10
308.15 K, 1993 kPa	4.1e-10
323.15 K, 94 kPa	2.8e-10
323.15 K, 194 kPa	4.1e-10
323.15 K, 293 kPa	3.1e-10
323.15 K, 393 kPa	3.5e-10
323.15 K, 493 kPa	3.9e-10
323.15 K, 594 kPa	4.2e-10
323.15 K, 693 kPa	3.7e-10
323.15 K, 793 kPa	3.7e-10
323.15 K, 893 kPa	3.9e-10
323.15 K, 993 kPa	4e-10
323.15 K, 1093 kPa	3.8e-10
323.15 K, 1193 kPa	4e-10
323.15 K, 1293 kPa	4e-10
323.15 K, 1393 kPa	4.4e-10
323.15 K, 1493 kPa	4.3e-10
323.15 K, 1593 kPa	4.2e-10
323.15 K, 1693 kPa	4.7e-10
323.15 K, 1793 kPa	4.5e-10
323.15 K, 1893 kPa	3.7e-10
323.15 K, 1993 kPa	5.4e-10
338.25 K, 194 kPa	5.1e-10
338.25 K, 294 kPa	3.7e-10
338.25 K, 393 kPa	4.9e-10
338.25 K, 494 kPa	6.7e-10
338.25 K, 693 kPa	4.9e-10
338.25 K, 793 kPa	4.8e-10
338.25 K, 893 kPa	5.8e-10
338.25 K, 993 kPa	5.3e-10
338.25 K, 1092 kPa	5.3e-10
338.25 K, 1193 kPa	5.3e-10
338.25 K, 1292 kPa	5.6e-10
338.25 K, 1393 kPa	4.8e-10
338.25 K, 1493 kPa	5.5e-10
338.25 K, 1592 kPa	4.9e-10
338.25 K, 1693 kPa	6.6e-10
338.25 K, 1792 kPa	6e-10
338.25 K, 1893 kPa	6.1e-10
338.25 K, 1993 kPa	6.3e-10
353.25 K, 594 kPa	6.4e-10
353.25 K, 694 kPa	7.1e-10
353.25 K, 893 kPa	6e-10
353.25 K, 993 kPa	6.5e-10
353.25 K, 1193 kPa	6.3e-10
353.25 K, 1293 kPa	6.8e-10
353.25 K, 1393 kPa	6.3e-10
353.25 K, 1593 kPa	5.3e-10
353.25 K, 1693 kPa	7.6e-10
353.25 K, 1793 kPa	7.7e-10
353.25 K, 1893 kPa	7.7e-10
353.25 K, 1993 kPa	6.7e-10

CCCCCCCn1cc[n+](C)c1.N#C[C-](C#N)C#N [1-heptyl-3-methylimidazolium tricyanomethanide] + O=C=O
Conditions	binary diffusion coefficient [m2/s]
298.15 K, 93 kPa	2e-10
298.15 K, 193 kPa	1.6e-10
298.15 K, 293 kPa	1.7e-10
298.15 K, 393 kPa	1.9e-10
298.15 K, 492 kPa	2e-10
298.15 K, 692 kPa	2.3e-10
298.15 K, 792 kPa	2.4e-10
298.15 K, 893 kPa	2.5e-10
298.15 K, 993 kPa	2.7e-10
298.15 K, 1193 kPa	3.1e-10
298.15 K, 1293 kPa	2.9e-10
298.15 K, 1392 kPa	2.9e-10
298.15 K, 1493 kPa	3.1e-10
298.15 K, 1693 kPa	2.8e-10
298.15 K, 1792 kPa	3.1e-10
298.15 K, 1893 kPa	3.6e-10
298.15 K, 1993 kPa	3.5e-10
308.15 K, 94 kPa	2.6e-10
308.15 K, 194 kPa	2.3e-10
308.15 K, 294 kPa	2.4e-10
308.15 K, 394 kPa	2.8e-10
308.15 K, 493 kPa	2.8e-10
308.15 K, 593 kPa	2.9e-10
308.15 K, 693 kPa	2.7e-10
308.15 K, 993 kPa	3e-10
308.15 K, 1093 kPa	3.2e-10
308.15 K, 1192 kPa	3.4e-10
308.15 K, 1293 kPa	3.3e-10
308.15 K, 1392 kPa	3.5e-10
308.15 K, 1493 kPa	3.6e-10
308.15 K, 1893 kPa	3.9e-10
308.15 K, 1993 kPa	4.2e-10
323.15 K, 95 kPa	3.2e-10
323.15 K, 195 kPa	4e-10
323.15 K, 294 kPa	3.8e-10
323.15 K, 394 kPa	3.5e-10
323.15 K, 494 kPa	3.8e-10
323.15 K, 594 kPa	3.9e-10
323.15 K, 692 kPa	3.2e-10
323.15 K, 793 kPa	4e-10
323.15 K, 893 kPa	3.5e-10
323.15 K, 993 kPa	4.4e-10
323.15 K, 1093 kPa	4.2e-10
323.15 K, 1192 kPa	4.4e-10
323.15 K, 1293 kPa	3.2e-10
338.25 K, 95 kPa	4.5e-10
338.25 K, 196 kPa	4.4e-10
338.25 K, 295 kPa	4.3e-10
338.25 K, 394 kPa	5.3e-10
338.25 K, 493 kPa	4.7e-10
338.25 K, 594 kPa	5.2e-10
338.25 K, 793 kPa	6.1e-10
338.25 K, 993 kPa	5.8e-10
338.25 K, 1093 kPa	5.6e-10
338.25 K, 1292 kPa	6.5e-10
338.25 K, 1392 kPa	5.6e-10
338.25 K, 1793 kPa	5.8e-10
338.25 K, 1893 kPa	5.6e-10
338.25 K, 1993 kPa	6.5e-10
353.25 K, 494 kPa	6.4e-10
353.25 K, 594 kPa	6.5e-10
353.25 K, 693 kPa	5.4e-10
353.25 K, 793 kPa	6e-10
353.25 K, 894 kPa	6.6e-10
353.25 K, 994 kPa	7.5e-10
353.25 K, 1094 kPa	5.7e-10
353.25 K, 1193 kPa	7.1e-10
